According to PMC10408569, “Recruitment of hexahydroquinoline as anticancer scaffold targeting inhibition of wild and mutants EGFR (EGFR^WT, EGFR^T790M, and EGFR^L858R)” (Journal of Enzyme Inhibition and Medicinal Chemistry, 2023):

Experiments:
[1] = system: CCRF-CEM; assay: NCI-60 anticancer screening (SRB); type: cell-based; conditions: Homo sapiens, leukemia, one dose 10 μM, read-out: Growth Inhibition Percentage (GI %)
[2] = system: K-562; assay: NCI-60 anticancer screening (SRB); type: cell-based; conditions: Homo sapiens, K562; K-562, leukemia; one dose 10 μM; read-out: Growth Inhibition Percentage (GI %)
[3] = system: RPMI-8226; assay: NCI-60 anticancer screening (SRB); type: cell-based; conditions: Homo sapiens; RPMI-8226, leukemia; one dose 10 μM; read-out: Growth Inhibition Percentage (GI %)
[4] = system: SR; assay: NCI-60 anticancer screening (SRB); type: cell-based; conditions: Homo sapiens, leukemia, one dose 10 μM, read-out: Growth Inhibition Percentage (GI %)
[5] = system: A549/ATCC; assay: NCI-60 anticancer screening (SRB); type: cell-based; conditions: Homo sapiens; A549/ATCC, NSC lung cancer; one dose 10 μM; read-out: Growth Inhibition Percentage (GI %)
[6] = system: EKVX; assay: NCI-60 anticancer screening (SRB); type: cell-based; conditions: Homo sapiens, NSC lung cancer, one dose 10 μM, read-out: Growth Inhibition Percentage (GI %)
[7] = system: HOP-92; assay: NCI-60 anticancer screening (SRB); type: cell-based; conditions: Homo sapiens; HOP-92, NSC lung cancer; one dose 10 μM; read-out: Growth Inhibition Percentage (GI %)
[8] = system: NCI-H226; assay: NCI-60 anticancer screening (SRB); type: cell-based; conditions: Homo sapiens; NCI-H226, NSC lung cancer; one dose 10 μM; read-out: Growth Inhibition Percentage (GI %)
[9] = system: HCT-116; assay: NCI-60 anticancer screening (SRB); type: cell-based; conditions: Homo sapiens; HCT-116, colon cancer; one dose 10 μM; read-out: Growth Inhibition Percentage (GI %)
[10] = system: HCT-15; assay: NCI-60 anticancer screening (SRB); type: cell-based; conditions: Homo sapiens; HCT-15, colon cancer; one dose 10 μM; read-out: Growth Inhibition Percentage (GI %)
[11] = system: SF-268; assay: NCI-60 anticancer screening (SRB); type: cell-based; conditions: Homo sapiens; SF-268, CNS cancer; one dose 10 μM; read-out: Growth Inhibition Percentage (GI %)
[12] = system: SF-295; assay: NCI-60 anticancer screening (SRB); type: cell-based; conditions: Homo sapiens; SF-295, CNS cancer; one dose 10 μM; read-out: Growth Inhibition Percentage (GI %)
[13] = system: SF-539; assay: NCI-60 anticancer screening (SRB); type: cell-based; conditions: Homo sapiens; SF-539, CNS cancer; one dose 10 μM; read-out: Growth Inhibition Percentage (GI %)
[14] = system: SNB-19; assay: NCI-60 anticancer screening (SRB); type: cell-based; conditions: Homo sapiens; SNB-19, CNS cancer; one dose 10 μM; read-out: Growth Inhibition Percentage (GI %)
[15] = system: SNB-75; assay: NCI-60 anticancer screening (SRB); type: cell-based; conditions: Homo sapiens; SNB-75, CNS cancer; one dose 10 μM; read-out: Growth Inhibition Percentage (GI %)
[16] = system: U251; assay: NCI-60 anticancer screening (SRB); type: cell-based; conditions: Homo sapiens, U-251; U251, CNS cancer; one dose 10 μM; read-out: Growth Inhibition Percentage (GI %)
[17] = system: MALME-3M; assay: NCI-60 anticancer screening (SRB); type: cell-based; conditions: Homo sapiens, melanoma, one dose 10 μM, read-out: Growth Inhibition Percentage (GI %)
[18] = system: MDA-MB-435; assay: NCI-60 anticancer screening (SRB); type: cell-based; conditions: Homo sapiens; MDA-MB-435, melanoma; one dose 10 μM; read-out: Growth Inhibition Percentage (GI %)
[19] = system: SK-MEL-28; assay: NCI-60 anticancer screening (SRB); type: cell-based; conditions: Homo sapiens; SK-MEL-28, melanoma; one dose 10 μM; read-out: Growth Inhibition Percentage (GI %)
[20] = system: UACC-257; assay: NCI-60 anticancer screening (SRB); type: cell-based; conditions: Homo sapiens; UACC-257, melanoma; one dose 10 μM; read-out: Growth Inhibition Percentage (GI %)
[21] = system: IGROV1; assay: NCI-60 anticancer screening (SRB); type: cell-based; conditions: Homo sapiens, IGROV-1; IGROV1, ovarian cancer; one dose 10 μM; read-out: Growth Inhibition Percentage (GI %)
[22] = system: OVCAR-5; assay: NCI-60 anticancer screening (SRB); type: cell-based; conditions: Homo sapiens; OVCAR-5, ovarian cancer; one dose 10 μM; read-out: Growth Inhibition Percentage (GI %)
[23] = system: OVCAR-8; assay: NCI-60 anticancer screening (SRB); type: cell-based; conditions: Homo sapiens; OVCAR-8, ovarian cancer; one dose 10 μM; read-out: Growth Inhibition Percentage (GI %)
[24] = system: SK-OV-3; assay: NCI-60 anticancer screening (SRB); type: cell-based; conditions: Homo sapiens; SK-OV-3, ovarian cancer; one dose 10 μM; read-out: Growth Inhibition Percentage (GI %)
[25] = system: ACHN; assay: NCI-60 anticancer screening (SRB); type: cell-based; conditions: Homo sapiens, renal cancer, one dose 10 μM, read-out: Growth Inhibition Percentage (GI %)
[26] = system: PC-3; assay: NCI-60 anticancer screening (SRB); type: cell-based; conditions: Homo sapiens; PC-3, prostate cancer; one dose 10 μM; read-out: Growth Inhibition Percentage (GI %)
[27] = system: DU-145; assay: NCI-60 anticancer screening (SRB); type: cell-based; conditions: Homo sapiens; DU-145, prostate cancer; one dose 10 μM; read-out: Growth Inhibition Percentage (GI %)
[28] = system: MDA-MB-468; assay: NCI-60 anticancer screening (SRB); type: cell-based; conditions: Homo sapiens; MDA-MB-468, breast cancer; one dose 10 μM; read-out: Growth Inhibition Percentage (GI %)
[29] = target: EGFR^T790M (Homo sapiens, UniProt P00533, T790M); assay: biochemical
EGFR^T790M, sequence (P00533 25-1210 T790M): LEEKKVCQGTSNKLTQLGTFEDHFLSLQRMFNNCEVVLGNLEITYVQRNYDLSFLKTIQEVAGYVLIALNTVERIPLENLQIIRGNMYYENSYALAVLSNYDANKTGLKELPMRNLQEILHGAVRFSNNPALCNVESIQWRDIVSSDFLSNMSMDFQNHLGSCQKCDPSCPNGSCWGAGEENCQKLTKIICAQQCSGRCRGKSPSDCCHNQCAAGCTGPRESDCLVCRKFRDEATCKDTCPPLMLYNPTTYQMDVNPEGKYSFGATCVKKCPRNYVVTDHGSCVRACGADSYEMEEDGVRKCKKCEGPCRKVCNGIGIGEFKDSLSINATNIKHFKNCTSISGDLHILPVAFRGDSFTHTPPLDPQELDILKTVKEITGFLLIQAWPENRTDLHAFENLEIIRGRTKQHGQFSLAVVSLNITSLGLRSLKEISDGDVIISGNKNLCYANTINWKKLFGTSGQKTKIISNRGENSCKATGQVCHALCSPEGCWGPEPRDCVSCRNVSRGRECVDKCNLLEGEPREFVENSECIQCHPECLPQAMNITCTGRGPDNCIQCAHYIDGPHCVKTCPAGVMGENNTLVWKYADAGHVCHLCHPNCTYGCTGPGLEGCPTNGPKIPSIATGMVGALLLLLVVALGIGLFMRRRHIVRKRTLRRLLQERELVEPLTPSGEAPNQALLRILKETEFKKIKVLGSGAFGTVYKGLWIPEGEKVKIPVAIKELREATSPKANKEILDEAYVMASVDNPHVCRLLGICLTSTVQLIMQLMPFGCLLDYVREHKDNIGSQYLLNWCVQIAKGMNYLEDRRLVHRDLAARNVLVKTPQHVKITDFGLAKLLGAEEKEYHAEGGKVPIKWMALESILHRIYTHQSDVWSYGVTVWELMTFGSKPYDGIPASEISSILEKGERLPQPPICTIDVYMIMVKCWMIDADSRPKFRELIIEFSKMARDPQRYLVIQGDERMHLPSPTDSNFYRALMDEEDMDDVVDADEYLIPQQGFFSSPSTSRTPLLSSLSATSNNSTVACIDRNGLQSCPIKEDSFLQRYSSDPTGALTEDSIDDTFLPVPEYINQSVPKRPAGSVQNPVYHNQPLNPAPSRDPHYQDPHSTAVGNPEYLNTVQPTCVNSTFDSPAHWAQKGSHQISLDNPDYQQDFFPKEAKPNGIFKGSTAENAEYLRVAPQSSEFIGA

[30] = target: EGFR^L858R (Homo sapiens, UniProt P00533, L858R); assay: biochemical
EGFR^L858R, sequence (P00533 25-1210 L858R): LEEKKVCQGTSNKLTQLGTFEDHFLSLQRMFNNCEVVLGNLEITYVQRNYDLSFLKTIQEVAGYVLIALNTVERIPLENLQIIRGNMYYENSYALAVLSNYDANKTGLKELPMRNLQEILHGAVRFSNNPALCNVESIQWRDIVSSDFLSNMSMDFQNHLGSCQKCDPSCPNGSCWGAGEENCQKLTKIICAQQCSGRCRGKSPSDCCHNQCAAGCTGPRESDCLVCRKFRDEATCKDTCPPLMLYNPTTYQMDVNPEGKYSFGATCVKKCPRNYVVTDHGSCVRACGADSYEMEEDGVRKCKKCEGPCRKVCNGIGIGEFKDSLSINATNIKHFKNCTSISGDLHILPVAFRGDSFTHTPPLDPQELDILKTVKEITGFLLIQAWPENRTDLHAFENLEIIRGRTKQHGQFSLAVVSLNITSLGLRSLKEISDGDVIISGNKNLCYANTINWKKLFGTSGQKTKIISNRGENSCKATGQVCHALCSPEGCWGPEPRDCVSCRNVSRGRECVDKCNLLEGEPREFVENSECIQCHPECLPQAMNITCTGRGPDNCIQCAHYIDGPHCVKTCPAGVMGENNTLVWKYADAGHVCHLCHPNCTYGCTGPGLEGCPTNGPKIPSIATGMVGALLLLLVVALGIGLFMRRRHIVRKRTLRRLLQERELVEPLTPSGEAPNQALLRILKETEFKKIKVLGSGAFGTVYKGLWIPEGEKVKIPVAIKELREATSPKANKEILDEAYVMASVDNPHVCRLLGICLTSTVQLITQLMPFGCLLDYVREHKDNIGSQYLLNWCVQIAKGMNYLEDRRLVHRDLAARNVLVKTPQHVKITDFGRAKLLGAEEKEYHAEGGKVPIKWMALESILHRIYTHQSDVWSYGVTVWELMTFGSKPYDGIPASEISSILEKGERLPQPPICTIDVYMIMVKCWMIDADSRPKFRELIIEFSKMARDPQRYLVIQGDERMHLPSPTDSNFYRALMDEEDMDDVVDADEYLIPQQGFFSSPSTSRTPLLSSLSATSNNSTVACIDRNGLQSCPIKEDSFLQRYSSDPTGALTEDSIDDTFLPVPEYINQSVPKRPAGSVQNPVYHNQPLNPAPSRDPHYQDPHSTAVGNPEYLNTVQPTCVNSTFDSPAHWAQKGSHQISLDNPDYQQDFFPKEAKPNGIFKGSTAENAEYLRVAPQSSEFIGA

[31] = target: EGFR^WT (Homo sapiens, UniProt P00533); assay: EGFR kinase inhibitory assay (HTRF)
EGFR^WT, sequence (P00533 25-1210): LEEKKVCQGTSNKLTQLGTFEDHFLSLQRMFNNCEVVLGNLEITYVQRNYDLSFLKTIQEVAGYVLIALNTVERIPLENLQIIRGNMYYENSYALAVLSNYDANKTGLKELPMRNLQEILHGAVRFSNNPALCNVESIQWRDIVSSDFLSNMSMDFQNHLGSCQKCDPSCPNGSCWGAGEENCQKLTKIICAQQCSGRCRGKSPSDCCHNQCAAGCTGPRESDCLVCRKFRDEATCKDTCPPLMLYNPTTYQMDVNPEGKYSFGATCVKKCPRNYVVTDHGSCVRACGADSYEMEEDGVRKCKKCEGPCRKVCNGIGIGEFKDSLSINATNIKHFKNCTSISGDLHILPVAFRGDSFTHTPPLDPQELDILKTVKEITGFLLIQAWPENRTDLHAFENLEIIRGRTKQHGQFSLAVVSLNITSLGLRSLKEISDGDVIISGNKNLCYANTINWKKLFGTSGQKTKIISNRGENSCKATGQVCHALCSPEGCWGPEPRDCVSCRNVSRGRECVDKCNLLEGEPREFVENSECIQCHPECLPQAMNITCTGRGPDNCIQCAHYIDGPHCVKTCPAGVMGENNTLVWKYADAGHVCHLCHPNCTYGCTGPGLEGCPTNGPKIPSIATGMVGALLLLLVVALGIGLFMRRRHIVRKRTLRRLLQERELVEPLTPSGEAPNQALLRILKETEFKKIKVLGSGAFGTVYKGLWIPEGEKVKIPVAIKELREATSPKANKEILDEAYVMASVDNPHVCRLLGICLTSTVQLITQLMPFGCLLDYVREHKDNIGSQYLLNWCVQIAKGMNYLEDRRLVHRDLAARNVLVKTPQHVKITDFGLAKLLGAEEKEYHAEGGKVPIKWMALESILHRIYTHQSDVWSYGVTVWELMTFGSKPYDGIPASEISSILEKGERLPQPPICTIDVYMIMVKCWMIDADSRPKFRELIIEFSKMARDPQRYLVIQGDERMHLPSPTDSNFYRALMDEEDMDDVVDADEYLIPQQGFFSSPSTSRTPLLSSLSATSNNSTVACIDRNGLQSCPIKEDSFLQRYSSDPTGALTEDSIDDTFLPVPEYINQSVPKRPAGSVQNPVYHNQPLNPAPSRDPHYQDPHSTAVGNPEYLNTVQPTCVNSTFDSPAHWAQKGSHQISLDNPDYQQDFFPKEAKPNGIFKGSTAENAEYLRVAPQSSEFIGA

SMILES	inhibition at 10 µM [1] [%]	inhibition at 10 µM [2] [%]	inhibition at 10 µM [3] [%]	inhibition at 10 µM [4] [%]	inhibition at 10 µM [5] [%]	inhibition at 10 µM [6] [%]	inhibition at 10 µM [7] [%]	inhibition at 10 µM [8] [%]	inhibition at 10 µM [9] [%]	inhibition at 10 µM [10] [%]	inhibition at 10 µM [11] [%]	inhibition at 10 µM [12] [%]	inhibition at 10 µM [13] [%]	inhibition at 10 µM [14] [%]	inhibition at 10 µM [15] [%]	inhibition at 10 µM [16] [%]	inhibition at 10 µM [17] [%]	inhibition at 10 µM [18] [%]	inhibition at 10 µM [19] [%]	inhibition at 10 µM [20] [%]	other results
CCOC(=O)C1=C(N)N(c2ccccc2)C2=C(C(=O)CC(C)(C)C2)C1c1ccc(Cl)cc1 (racemic) [8c, (±)-Ethyl 2-amino-4–(4-chlorophenyl)-7,7-dimethyl-5-oxo-1-phenyl-1,4,5,6,7,8-hexahydroquinoline-3-carboxylate]	85	82	92	87	66	72	30	30	81	85	42	79	64	85	27	58	84	78	56	72	inhibition at 10 µM [21]: 40%; inhibition at 10 µM [22]: 42%; inhibition at 10 µM [23]: 39%; inhibition at 10 µM [24]: 56%; inhibition at 10 µM [25]: 78%; inhibition at 10 µM [26]: 78%; inhibition at 10 µM [27]: 42%; inhibition at 10 µM [28]: 67%; IC50 [29]: 820 ± 6 nM; IC50 [30]: 812 ± 5 nM; IC50 [31]: 194 ± 90 nM
CCOC(=O)C1=C(N)N(c2ccccc2)C2=C(C(=O)CC(C)(C)C2)C1c1ccccc1Cl (racemic) [6a, (±)-Ethyl 2-amino-4–(2-chlorophenyl)-7,7-dimethyl-5-oxo-1-phenyl-1,4,5,6,7,8-hexahydroquinoline-3-carboxylate]	52	59	78	68	25	26	32	24	59	51	20	25	< 10	30	34	21	11	27	19	28	inhibition at 10 µM [21]: < 10%; inhibition at 10 µM [22]: 14%; inhibition at 10 µM [23]: 17%; inhibition at 10 µM [24]: < 10%; inhibition at 10 µM [25]: 31%; inhibition at 10 µM [26]: 71%; inhibition at 10 µM [27]: 12%; inhibition at 10 µM [28]: 50%; IC50 [29]: 610 ± 5 nM; IC50 [30]: 490 ± 4 nM; IC50 [31]: 358 ± 160 nM
